Measured values as given in US6653300B2, “Pyrazole compounds useful as protein kinase inhibitors” (Vertex Pharmaceuticals Incorporated, priority 2000, dated 2003).
Read-outs that look alike come from different tables or passages of the source.

Key:
Aurora-2 = biological target: T1, Aurora-2 (Homo sapiens, UniProt O14965); experiment: Ki determination for the inhibition of Aurora-2 (coupled enzyme assay); type: biochemical; conditions: 70 nM Aurora-2, 30° C.
T1 sequence (O14965 1-403): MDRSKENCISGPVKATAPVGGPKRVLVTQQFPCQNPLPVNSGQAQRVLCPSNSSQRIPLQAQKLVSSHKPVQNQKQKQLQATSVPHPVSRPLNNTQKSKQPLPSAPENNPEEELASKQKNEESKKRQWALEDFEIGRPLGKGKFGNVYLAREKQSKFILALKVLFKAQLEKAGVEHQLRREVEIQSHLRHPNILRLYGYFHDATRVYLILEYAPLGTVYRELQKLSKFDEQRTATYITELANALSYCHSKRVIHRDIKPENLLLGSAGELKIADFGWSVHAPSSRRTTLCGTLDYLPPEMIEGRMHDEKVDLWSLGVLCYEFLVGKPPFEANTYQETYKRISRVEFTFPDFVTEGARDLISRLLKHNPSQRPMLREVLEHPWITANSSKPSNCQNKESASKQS
Method in brief: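 Ki came from reaction rates plotted against inhibitor concentration, with rates taken as A340 decrease over 5 min at 30° C. Enzyme (70 nM final) was added after 10 min compound preincubation; stock buffer held […], 800 μM LRRASLG, PK/LDH coupling, pH 7.5.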

CDK-2/Cyclin A = CDK-2/Cyclin A (Homo sapiens, UniProt P24941); experiment: CDK-2 inhibition assay (coupled enzyme assay); type: biochemical; conditions: 25 nM CDK-2/Cyclin A, 30° C.
Procedure: Compounds were screened in the following manner for their ability to inhibit CDK-2 using a standard coupled enzyme assay (Fox et al (1998) Protein Sci 7, 2249).
To an assay stock buffer solution containing 0.1M HEPES 7.5, 10 mM MgCl2, 1 mM DTT, 25 mM NaCl, 2.5 mM phosphoenolpyruvate, […], 30 mg/ml pyruvate kinase, 10 mg/ml lactate dehydrogenase, 100 mM ATP, and 100 μM peptide ([…], American Peptide, Sunnyvale, Calif.) was added a DMSO solution of a compound of the present invention to a final concentration of 30 μM. The resulting mixture was incubated at 30° C. for 10 min.
The reaction was initiated by the addition of 10 μL of CDK-2/Cyclin A stock solution to give a final concentration of 25 nM in the assay. The rates of reaction were obtained by monitoring absorbance at 340 nm over a 5-minute read time at 30° C. using a BioRad Ultramark plate reader (Hercules, Calif.). The Ki values were determined from the rate data as a function of inhibitor concentration.

GSK-3β (AA 1-420) = biological target: T2, GSK-3β (AA 1-420) (Homo sapiens, UniProt P49841); experiment: Ki determination for the inhibition of GSK-3 (coupled enzyme system); type: biochemical; conditions: 20 μM ATP, 20 nM GSK-3β, 30° C.
T2 construct: GSK-3β (AA 1-420)
T2 sequence (P49841 whole entry, the tested form may be a part): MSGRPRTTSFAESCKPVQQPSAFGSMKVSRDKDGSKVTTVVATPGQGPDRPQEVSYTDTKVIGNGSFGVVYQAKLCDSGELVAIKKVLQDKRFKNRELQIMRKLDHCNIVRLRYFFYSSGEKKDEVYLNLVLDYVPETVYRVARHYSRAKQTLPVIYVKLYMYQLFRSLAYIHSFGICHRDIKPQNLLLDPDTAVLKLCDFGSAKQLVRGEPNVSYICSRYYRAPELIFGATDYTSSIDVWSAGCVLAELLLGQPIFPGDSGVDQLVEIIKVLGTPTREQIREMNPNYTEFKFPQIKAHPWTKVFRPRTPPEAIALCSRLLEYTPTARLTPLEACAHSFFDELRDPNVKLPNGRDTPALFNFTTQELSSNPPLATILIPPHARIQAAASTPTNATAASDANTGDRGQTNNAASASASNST
Method in brief: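 GSK-3β (AA 1-420, 20 nM) was run in a pyruvate kinase/LDH-coupled NADH assay in 100 mM HEPES pH 7.5, 10 mM MgCl2, 25 mM NaCl, 1 mM DTT, 1.5% DMSO, with 300 μM phosphopeptide substrate. Compound (0.002–30 μM) was preincubated 10 min at 30° C, then 20 μM ATP was added.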

human Src kinase = biological target: T3, human Src kinase (Homo sapiens, UniProt P12931); experiment: SRC inhibition assay (radioactivity-based or spectrophotometric assay); type: biochemical; conditions: recombinant human Src kinase, assay A or B
T3 construct: full length recombinant human Src kinase (from Upstate Biotechnology, cat. no. 14-117); purchased Upstate Biotechnology 14-117; host or cells: baculo viral cells
T3 sequence (P12931 whole entry): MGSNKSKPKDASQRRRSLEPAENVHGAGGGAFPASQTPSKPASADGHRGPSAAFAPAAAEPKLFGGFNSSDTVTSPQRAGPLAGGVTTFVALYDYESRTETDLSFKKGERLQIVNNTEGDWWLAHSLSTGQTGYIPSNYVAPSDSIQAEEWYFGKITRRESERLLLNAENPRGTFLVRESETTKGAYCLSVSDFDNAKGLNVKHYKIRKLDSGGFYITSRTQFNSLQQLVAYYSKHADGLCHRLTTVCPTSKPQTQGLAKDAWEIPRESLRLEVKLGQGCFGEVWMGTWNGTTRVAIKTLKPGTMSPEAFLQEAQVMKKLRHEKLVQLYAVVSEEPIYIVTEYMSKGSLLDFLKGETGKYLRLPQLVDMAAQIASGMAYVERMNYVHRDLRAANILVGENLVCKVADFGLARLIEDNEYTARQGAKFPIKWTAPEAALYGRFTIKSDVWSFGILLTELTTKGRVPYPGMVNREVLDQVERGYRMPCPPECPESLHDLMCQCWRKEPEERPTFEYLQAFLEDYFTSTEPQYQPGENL
Procedure: The compounds were evaluated as inhibitors of human Src kinase using either a radioactivity-based assay or spectrophotometric assay. The compounds were assayed as inhibitors of full length recombinant human Src kinase (from Upstate Biotechnology, cat. no. 14-117) expressed and purified from baculo viral cells. […] P-0275). […] In a typical assay, all the reaction components with the exception of ATP were pre-mixed and aliquoted into assay plate wells. […] The assay plate was incubated at 30° C. for 10 min before initiating the reaction with ^33P-ATP. After 20 min of reaction, the reactions were quenched with 150 μl of 10% trichloroacetic acid (TCA) containing 20 mM Na3PO4. The quenched samples were then transferred to a 96-well filter plate (Whatman, UNI-Filter GF/F Glass Fiber Filter, cat no. 7700-3310) installed on a filter plate vacuum manifold. Filter plates were washed four times with 10% TCA containing 20 mM Na3PO4 and then 4 times with methanol. 200 μl of scintillation fluid was then added to each well. The plates were sealed and the amount of radioactivity associated with the filters was quantified on a TopCount scintillation counter. The radioactivity incorporated was plotted as a function of the inhibitor concentration. The data was fitted to a competitive inhibition kinetics model to get the Ki for the compound. The ADP produced from ATP by the human recombinant Src kinase-catalyzed phosphorylation of poly Glu-Tyr substrate was quanitified using a coupled enzyme assay (Fox et al (1998) Protein Sci 7, 2249). In this assay one molecule of NADH is oxidised to NAD for every molecule of ADP produced in the kinase reaction. The disappearance of NADH can be conveniently followed at 340 nm. […] In a typical assay, all the reaction components with the exception of ATP were pre-mixed and aliquoted into assay plate wells. […] The absorbance change at 340 nm with time, the rate of the reaction, was monitored on a molecular devices plate reader. The data of rate as a function of the inhibitor concentration was fitted to competitive inhibition kinetics model to get the Ki for the compound.

Compound	Ki (Aurora-2) [nM]	Ki (GSK-3β (AA 1-420)) [nM]	Ki (human Src kinase; read-out: Ki value on SRC) [nM]	melting point	Ki (human Src kinase; read-out: Ki value for SRC) [nM]	Ki (CDK-2/Cyclin A) [nM]
CC(=O)Nc1ccc(Sc2nc(Nc3cc(C)[nH]n3)c3ccccc3n2)cc1 [IIa-38, [2-(4-Acetamidophenylsulfanyl)-quinazolin-4-yl]-(5-methyl-2H-pyrazol-3-yl)-amine]	< 100	100 to 1000	–	–	–	1000 to 20000
Cc1cccc(Oc2nc(Nc3cc(C4CC4)[nH]n3)c3ccccc3n2)c1 [IIb-5, (5-Cyclopropyl-2H-pyrazol-3-yl)-[2-(3-methylphenoxy)-quinazolin-4-yl]-amine]	< 100	< 100	< 100	283 to 284 °C	–	–
Cc1cc(Nc2nc(NCC3CCCCC3)nc3ccccc23)n[nH]1 [IIc-8, (2-Cyclohexylmethylamino-quinazolin-4-yl)-(5-methyl-2H-pyrazol-3-yl)-amine]	< 100	< 100	< 100	211 °C	–	–
Cc1cc(Nc2nc(NCc3cccnc3)nc3ccccc23)n[nH]1 [IIc-10, (5-Methyl-2H-pyrazol-3-yl)-[2-(pyridin-3-ylmethylamino)-quinazolin-4-yl]-amine]	< 100	< 100	< 100	218 °C	–	–
Cc1cccc(Nc2nc(Nc3cc(C4CC4)[nH]n3)c3ccccc3n2)c1 [IIc-19, (5-Cyclopropyl-2H-pyrazol-3-yl)-[2-(3-methylphenylamino)-quinazolin-4-yl]-amine]	< 100	100 to 1000	< 100	117 °C	–	–
Cc1cc(Nc2nc(Nc3cc(C4CC4)[nH]n3)c3ccccc3n2)ccc1Cl [IIc-24, [2-(4-Chloro-3-methylphenylamino)-quinazolin-4-yl]-(5-cyclopropyl-2H-pyrazol-3-yl)-amine]	< 100	< 100	< 100	244 to 246 °C	–	–
c1csc(CNc2nc(Nc3cc(C4CC4)[nH]n3)c3ccccc3n2)c1 [IIc-35, (5-Cyclopropyl-2H-pyrazol-3-yl)-[2-(thiophen-2-methylamino)-quinazolin-4-yl]-amine]	< 100	< 100	< 100	212 °C	–	–
CCc1cccc(Nc2nc(Nc3cc(C4CC4)[nH]n3)c3ccccc3n2)c1 [IIc-41, (5-Cyclopropyl-2H-pyrazol-3-yl)-[2-(3-ethylphenylamino)-quinazolin-4-yl]-amine]	< 100	100 to 1000	< 100	186 to 188 °C	–	–
COc1ccc(Nc2nc(Nc3cc(C4CC4)[nH]n3)c3ccccc3n2)cc1OC [IIc-43, (5-Cyclopropyl-2H-pyrazol-3-yl)-[2-(3,4-dimethoxyphenylamino)-quinazolin-4-yl]-amine]	< 100	100 to 1000	< 100	144 °C	–	–

Second part, led by results:

Ki (Aurora-2) [nM]	Ki (GSK-3β (AA 1-420)) [nM]	Ki (human Src kinase; read-out: Ki value on SRC) [nM]	melting point	Ki (human Src kinase; read-out: Ki value for SRC) [nM]	Compound	Ki (CDK-2/Cyclin A) [nM]
< 100	< 100	< 100	177 °C	–	CN(Cc1cccnc1)c1nc(Nc2cc(C3CC3)[nH]n2)c2ccccc2n1 [IIc-3]	–
< 100	< 100	< 100	199 to 204 °C	–	c1ccc2c(Nc3cc(C4CC4)[nH]n3)nc(Nc3ccc4c(c3)CCC4)nc2c1 [IIc-21, (5-Cyclopropyl-2H-pyrazol-3-yl)-[2-(indan-5-ylamino)-quinazolin-4-yl]-amine]	–
< 100	100 to 1000	< 100	> 188 °C (dec.)	–	CC(=O)Nc1ccc(Nc2nc(Nc3cc(C4CC4)[nH]n3)c3ccccc3n2)cc1C [IIc-23, [2-(4-Acetamido-3-methylphenylamino)-quinazolin-4-yl]-(5-cyclopropyl-2H-pyrazol-3-yl)-amine]	–
< 100	100 to 1000	< 100	245 to 246 °C	–	Cc1ccc(Nc2nc(Nc3cc(C4CC4)[nH]n3)c3ccccc3n2)cc1C [IIc-33, (5-Cyclopropyl-2H-pyrazol-3-yl)-[2-(3,4-dimethylphenylamino)-quinazolin-4-yl]-amine]	–
< 100	100 to 1000	< 100	203 °C	–	c1ccc(OCCNc2nc(Nc3cc(C4CC4)[nH]n3)c3ccccc3n2)cc1 [IIc-34, (5-Cyclopropyl-2H-pyrazol-3-yl)-[2-(2-phenoxyethylamino)-quinazolin-4-yl]-amine]	–
< 100	< 100	< 100	193 °C	–	c1cncc(CNc2nc(Nc3cc(C4CC4)[nH]n3)c3ccccc3n2)c1 [IIc-38, (5-Cyclopropyl-2H-pyrazol-3-yl)-[2-(pyridin-3-ylmethylamino)-quinazolin-4-yl]-amine]	–
< 100	100 to 1000	< 100	207 to 211 °C	–	COc1cccc(Nc2nc(Nc3cc(C4CC4)[nH]n3)c3ccccc3n2)c1 [IIc-44, (5-Cyclopropyl-2H-pyrazol-3-yl)-[2-(3-methoxyphenylamino)-quinazolin-4-yl]-amine]	–
< 100	100 to 1000	< 100	246 to 247 °C	–	Cc1ccc(Cl)c(Nc2nc(Nc3cc(C)[nH]n3)c3ccccc3n2)c1 [IIc-51, [2-(2-Chloro-5-methylphenylamino)-quinazolin-4-yl]-(5-methyl-2H-pyrazol-3-yl)-amine]	–
100 to 1000	100 to 1000	–	164 to 167 °C	1000 to 6000	Cc1cc(Nc2nc(Nc3ccc(N)cc3)nc3ccccc23)n[nH]1 [IIc-66, [2-(4-Aminophenylamino)-quinazolin-4-yl]-(5-methyl-2H-pyrazol-3-yl)-amine]	–
< 100	1000 to 7000	–	176 to 179 °C	1000 to 6000	Cc1cc(Nc2nc(Nc3ccc(NC(=O)C(C)C)cc3)nc3ccccc23)n[nH]1 [IIc-68, [2-(4-Isobutyrylamino-phenylamino)-quinazolin-4-yl]-(5-methyl-2H-pyrazol-3-yl)-amine]	–
< 100	< 100	< 100	265 to 267 °C	–	c1ccc(OCc2nc(Nc3cc(C4CC4)[nH]n3)c3ccccc3n2)cc1 [IId-1, (5-Cyclopropyl-2H-pyrazol-3-yl)-(2-phenoxymethyl-quinazolin-4-yl)-amine]	–
< 100	100 to 1000	< 100	211 to 213 °C	–	c1ccc(COCc2nc(Nc3cc(C4CC4)[nH]n3)c3ccccc3n2)cc1 [IId-2, (2-Benzyloxymethyl-quinazolin-4-yl)-(5-cyclopropyl-2H-pyrazol-3-yl)-amine]	–
